Laboratory results published in publication PMC12833730, “Discovery of a First‐in‐Class Covalent Allosteric SHP1 Inhibitor with Immunotherapeutic Activity” (Angewandte Chemie (International Ed. in English), 2025).
Read-outs that look alike come from different tables or passages of the source.

What was measured:
Pharmacokinetics in mice = type: in vivo, C57BL/6 mice; parameters: AUC: unit not given here
Protocol: Given M029's superb potency, selectivity, and target engagement, we considered that these desirable attributes make it a powerful chemical probe for interrogating the roles of SHP1 in biological processes and a promising lead for further development into an SHP1‐targeted therapy. […] To that end, we determined the pharmacokinetic (PK) properties of M029 in mice by administrating the compound via intraperitoneal (IP), intravenous (IV), and oral (PO) routes at a concentration of 25 mg/kg (Figure S4). […] Importantly, M029 is orally bioavailable. […] Moreover, even with the 25 mg/kg oral gavage, the plasma concentration of M029 was maintained several‐fold higher than its biochemical IC50 and two‐fold above its cellular EC50 for Jurkat T cell activation for at least 1 h duration (Figure S4). These PK properties ensure that adequate M029 compound exposure can be achieved to assess the effect of SHP1 inhibition in vivo.
Figure S4. Pharmacokinetic parameters of M029. Curves of (A) PO, (B) IP, (C) IV dosage of M029 at 25 mg/kg in WT C57BL/6 mice. Results were analyzed using GraphPad Prism 10.4.2. The figure is plotted as average ± standard error of the mean (SEM).
All the in vivo studies were performed under an animal protocol (1511001324) approved by the Institutional Animal Care & Use Committee of Purdue University, in accordance with the recommendations in the Guide for the Care and Use of Laboratory Animals of the National Institutes of Health. For PK study, C57BL6 female mice (25-30g body weight) were injected intraperitoneally, orally, or intravenously with 25 mg/kg M029 dissolved in 0.4 ml saline. Blood samples were collected through the tail vein at the indicated time points after injection. Isoflurane was used as an anesthetic. All blood samples were centrifuged at 1,500 g for 5 minutes, and plasma was separated and stored at –80°C until analysis by a validated method based on reversed-phase liquid chromatography coupled to mass-spectrometric detection (LC/MS) using a previously published procedure.^169 For the MC38 syngeneic tumor study, 12-week-old C57BL6 female mice were injected subcutaneously with […] MC38 cells in the right and left flanks for tumor growth. When tumors reached an average volume of 100 mm^3 mice were tumor size-matched and randomly assigned to different experimental groups for experiments. Four mice with eight tumors were used in each treatment group. Mice were injected orally with saline or 25 or 100 mg/kg M029 daily. Tumor sizes and animal weights were measured twice per week. Tumor volume (mm^3) = (length X width^2)/2. At the end of the experiments, mice were euthanized, and tumors were collected for analysis. Among eight tumors collected from each group, four homogenous samples and […] were prepared for Western blots and histology analysis.

SHP1 = molecular target: T1, SHP1 (Homo sapiens, UniProt P29350); assay: IC50 after 10-min/60-min preincubation, DiFMUP phosphatase assay; type: biochemical
T1 construct: SHP1, residues 245-543; made in house; host or cells: E. coli BL21(DE3)
T1 sequence (P29350 245-543): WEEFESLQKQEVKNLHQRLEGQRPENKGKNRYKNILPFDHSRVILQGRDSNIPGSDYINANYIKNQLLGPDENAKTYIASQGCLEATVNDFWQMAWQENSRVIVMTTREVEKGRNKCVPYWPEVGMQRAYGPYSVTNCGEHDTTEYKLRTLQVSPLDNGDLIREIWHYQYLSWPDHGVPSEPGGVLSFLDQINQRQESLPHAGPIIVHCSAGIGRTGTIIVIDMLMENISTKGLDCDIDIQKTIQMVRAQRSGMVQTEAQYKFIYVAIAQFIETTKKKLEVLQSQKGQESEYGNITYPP
Source text: The PTP‐catalyzed reaction involves a nucleophilic attack by the conserved active site Cys side chain on the phosphorus atom of phosphotyrosine in the substrate.^[ [53] ^] As such, the PTPs could serve as prime targets for covalent inhibition. Previously described activity‐based probes or covalent ligands for the PTPs are either phosphotyrosine isosteres or thiol‐reactive compounds that covalently modify the active site residues (including the catalytic Cys) and lack sufficient isozyme specificity.^[ [54], [55], [56], [57], [58], [59], [60], [61] ^] Inspired by the resurgence in covalent inhibitors for difficult drug targets, we set out to discover covalent SHP1 inhibitors by screening for electrophilic fragments that bind covalently to SHP1. This strategy is increasingly utilized to identify novel ligands for a target of interest.^[ [47], [62], [63] ^] We assembled a library of 4600 Cys reactive molecules from the Enamine covalent fragment collections containing 49.0% acrylamide, 38.1% chloroacetamide, 5.15% chloromethylketone, 5.20% activated nitrile, 2.10% epoxide, and 0.53% disulfide (Figure S1A). We carried out a high‐throughput biochemical fragment screening of this curated commercially available library against the SHP1 catalytic domain (residues 245–543). Each fragment (500 µM) was incubated with SHP1 (500 nM) for 30 min at room temperature before diluting the reaction 5.5‐fold with 24.45 mM para‐nitrophenyl phosphate (pNPP) to measure the residual PTP activity. This concentration of substrate was chosen to out‐compete any remaining fragment to reduce the inactivation of SHP1 during the enzymatic hydrolysis of pNPP. After a 2‐min incubation at 25 °C, the reaction was quenched by the addition of 5N NaOH, and the production of para‐nitrophenol was determined by absorbance at 405 nm. This assay format afforded a Z’‐factor of 0.70 (Figure S1B), indicating a robust screen to reliably identify hit molecules. To enhance the probability of discovering covalent ligands with inherent preference for SHP1, we also counter‐screened the same library against SHP2, the closest homolog of SHP1, and two other widely studied PTPs, PTP1B and PTPN22 (also called LYP). […] Among these, 31 were repurchased based on their observed preference for SHP1 and structural diversity, 11 of which were confirmed as potential covalent inhibitors for SHP1 based on the time dependency of their half‐maximal inhibition concentration (IC50) values determined with a 10‐min and 60‐min preincubation time, respectively (Table 1).
To further confirm the time-dependent inhibition and determine the IC50 of acquired hits, repurchased compounds from Enamine were serially diluted in a 96-well plate, followed by the addition of proteins at 200 nM. After 10-minute and 60-minute preincubation, 2 µL of the mixture was transferred into 100 µM 6,8-Difluoro-4-Methylumbelliferyl Phosphate (DiFMUP, Invitrogen, cat# D6567) at a final volume of 200 µL. The reaction was allowed to proceed for 5 minutes and quenched by the addition of 40 µl of a 160 µM solution of bpV(Phen) (Sigma-Aldrich, cat# SML0889). The fluorescence signal was measured using a CLARIOstar Plus Microplate Spectrophotometer (BMG Labtech) using excitation and emission wavelengths of 340 nm and 450 nm, respectively. Data were fitted using Prism GraphPad 10.1.1.

| SMILES | duration plasma concentration above biochemical IC50 and two-fold above cellular EC50 (Pharmacokinetics in mice; 25 mg/kg oral gavage) | AUC (Pharmacokinetics in mice; female, C57BL/6, mouse, plasma, 25 mg/kg oral, read-out: AUC, oral) | Cmax (Pharmacokinetics in mice; female, C57BL/6, mouse, plasma, 25 mg/kg oral, read-out: Cmax, oral) [µM] | half-life (Pharmacokinetics in mice; female, C57BL/6, mouse, plasma, 25 mg/kg oral, read-out: t1/2, oral) [min] | AUC (Pharmacokinetics in mice; female, C57BL/6, mouse, plasma, ip, 25 mg/kg intraperitoneal, read-out: area under the curve (AUC), IP) | half-life (Pharmacokinetics in mice; female, C57BL/6, mouse, plasma, ip, 25 mg/kg intraperitoneal, read-out: half-life (t1/2), IP) [min] | Cmax (Pharmacokinetics in mice; female, C57BL/6, mouse, plasma, ip, 25 mg/kg intraperitoneal, read-out: peak plasma concentration (Cmax), IP) [µM] | bioavailability (Pharmacokinetics in mice; female, C57BL/6, mouse, plasma, po, 25 mg/kg, read-out: oral bioavailability (%F)) [%] | selectivity over a large panel of mammalian PTPs (SHP1; 60-min preincubation IC50 values, incl. SHP2) [fold] | IC50 (SHP1; 60-min preincubation, read-out: 60 min IC50, SHP1) [µM] | IC50 (SHP1; 10-min preincubation, purchased hits, read-out: SHP1 IC50, 10 min) [µM] | IC50 (SHP1; 60-min preincubation, purchased hits, read-out: SHP1 IC50, 60 min) [µM] | selectivity for SHP1 over SHP2, PTP1B, and PTPN22 (SHP1; from IC50 values) [fold] | IC50 (SHP1; resynthesized compound, 10 min preincubation, read-out: SHP1 IC50, 10 min preincubation) [µM] | IC50 (SHP1; resynthesized compound, 60 min preincubation, read-out: SHP1 IC50, 60 min preincubation) [µM] |
| --- | --- | --- | --- | --- | --- | --- | --- | --- | --- | --- | --- | --- | --- | --- | --- |
| N#Cc1ccsc1NS(=O)(=O)c1ccc(NC(=O)CCl)cc1 [M029, 2-Chloro-N-(4-(N-(3-cyanothiophen-2-yl)sulfamoyl)phenyl)acetamide] | at least 1 h | 1410 | 29.8 ± 7.1 | 38.5 ± 7.6 | 5090 | 36.3 ± 5.7 | 122 ± 28.2 | 18 | > 22.4 | 2.6 ± 0.5 |  |  |  |  |  |
| O=C(CCl)Nc1ccc(S(=O)(=O)Nc2nccs2)cc1 [Z57117023, 2-chloro-N-(4-(N-(thiazol-2-yl)sulfamoyl)phenyl)acetamide] |  |  |  |  |  |  |  |  |  |  | 99.1 | 17.5 | > 11 | 118 ± 8.3 | 25.2 ± 1.6 |
